Measurements: patent US8604068B2, “Insecticidal compositions of 2-cyanobenzene sulfonamide compounds and isomeric forms thereof having improved effect” (Bayer CropScience AG, priority 2007, dated 2013)

What was measured:
Assay type in all cases: in vivo
[1] = system: green peach aphid (Myzus persicae); test: Myzus persicae test (MYZUPE), ammonium salts in combination with penetration enhancers (Example C); conditions: for Kill rate/% after 7 days, +AS (1000 ppm) / Kill rate/% after 7 days, +RME (1000 ppm) / Kill rate/% after 7 days, +RME + AS (each 1000 ppm) / Kill rate/% after 7 days, a.i.: Table C2, emulsifier 1 part; for Kill rate/% after 7 days, +AS (1000 ppm): active substance 60 g/ha + ammonium sulfate 1000 ppm; for Kill rate/% after 7 days, +RME (1000 ppm): active substance 60 g/ha + rape oil methyl ester 1000 ppm; for Kill rate/% after 7 days, +RME + AS (each 1000 ppm): active substance 60 g/ha + rape oil methyl ester and ammonium sulfate; for Kill rate/% after 7 days, a.i.: active substance 60 g/ha; for Kill rate/% after 7 days, a.i. / Kill rate/% after 6 days, a.i.: no additive; for Kill rate/% after 6 days, +AS (1000 ppm) / Kill rate/% after 6 days, +RME (1000 ppm) / Kill rate/% after 6 days, +RME + AS (each 1000 ppm) / Kill rate/% after 6 days, a.i.: Table C1
Experimental: (§1) Myzus persicae—Test (MYZUPE)
(§2) For the preparation of a suitable active substance preparation, 1 part by weight of active substance is mixed with the stated quantities of solvent and emulsifier and the concentrate is diluted to the desired concentration with emulsifier-containing water. When addition of ammonium salts, penetration enhancers or ammonium salts and penetration enhancers is necessary, these are in each case pipetted into the finished preparation solution in a concentration of 1000 ppm after dilution.
Paprika plants (Capsicum annuum) which are severely infested with the green peach aphid (Myzus persicae) are treated by spraying with the active substance preparation in the desired concentration.
(§3) After the desired time, the kill rate in % is determined. Here 100% means that all the animals were killed; 0% means that no animals were killed.

[2] = system: green peach aphid (Myzus persicae); test: Myzus persicae test (MYZUPE), activity increase due to ammonium salts (Example A); conditions: sprayed paprika plants
Experimental: as §1
(§4) For the preparation of a suitable active substance preparation, 1 part by weight of active substance is mixed with the stated quantities of solvent and emulsifier and the concentrate is diluted to the desired concentration with emulsifier-containing water. When addition of ammonium salts is necessary, these are in each case pipetted into the finished preparation solution in a concentration of 1000 ppm after dilution.
Paprika plants (Capsicum annuum) which are severely infested by the green peach aphid (Myzus persicae) are treated by spraying with the active substance preparation in the desired concentration.
as §3

[3] = system: cotton aphid (Aphis gossypii); test: Aphis gossypii test (APHIGO), activity increase due to ammonium salts (Example B); conditions: sprayed cotton leaves; for Kill rate/% after 6 days, a.i.: no additive
Experimental: (§5) Aphis gossypii-Test (APHIGO)
as §4
(§6) Cotton leaves (Gossypium hirsutum) which are severely infested with the cotton aphid (Aphis gossypii) are sprayed with an active substance preparation with the desired concentration.
(§7) After the desired time, the kill rate in % is determined. Here 100% means that all the aphids were killed; 0% means that no aphids were killed.

[4] = system: common spider mite (Tetranychus urticae); test: Tetranychus test (OP-resistant), ammonium salts in combination with penetration enhancers (Example F); conditions: for Kill rate/% after 6 days, a.i.: no additive
Experimental: (§8) Tetranychus-Test (OP-Resistant)
as §2
(§9) Bean plants (Phaseolus vulgaris) which are severely infested by all stages of the common spider mite (Tetranychus urticae) are treated by spraying with the active substance preparation in the desired concentration.
(§10) After the desired time, the kill rate in % is determined. here 100% means that all the spider mites were killed; 0% means that no spider mites were killed.

[5] = system: cotton aphid (Aphis gossypii); test: Aphis gossypii test (APHIGO), ammonium salts in combination with penetration enhancers (Example D); conditions: for Kill rate/% after 6 days, +AS (1000 ppm) / Kill rate/% after 6 days, +RME (1000 ppm) / Kill rate/% after 6 days, +RME + AS (each 1000 ppm) / Kill rate/% after 6 days, a.i.: Table D1
Experimental: as §5, §2, §6, §7

[6] = system: common spider mite (Tetranychus urticae); test: Tetranychus test (OP-resistant), activity increase due to ammonium salts (Example E); conditions: sprayed bean plants
Experimental: as §8, §4, §9, §10

[7] = active substance 20 ppm + ammonium sulfate 1000 ppm
[8] = active substance 20 ppm, no additive
[9] = active substance 4 ppm + ammonium sulfate 1000 ppm
[10] = active substance 20 ppm + rape oil methyl ester 1000 ppm
[11] = active substance 20 ppm + rape oil methyl ester and ammonium sulfate
[12] = active substance 0.8 ppm + ammonium sulfate 1000 ppm
[13] = active substance 0.8 ppm + rape oil methyl ester 1000 ppm
[14] = active substance 4 ppm + rape oil methyl ester 1000 ppm
[15] = active substance 4 ppm + rape oil methyl ester and ammonium sulfate

For COc1cccc(S(=O)(=O)NCc2ccccc2)c1C#N [Example 40], the “Kill rate/% after 7 days, +AS (1000 ppm)” value [1] was 0%, the “Kill rate/% after 7 days, +RME (1000 ppm)” value [1] was 40% and the “Kill rate/% after 7 days, +RME + AS (each 1000 ppm)” value [1] was 50%. For the same molecule, the “Kill rate/% after 7 days, a.i.” value [1] was 0%.
For C#CCN1C(=N)c2c(OC)cccc2S1(=O)=O [Example 42-A], the “Kill rate/% after 6 days, +AS (1000 ppm)” value [2, 7] was 45%, the “Kill rate/% after 6 days, a.i.” value [2, 8] was 0% and the “Kill rate/% after 6 days, +AS (1000 ppm)” value [3, 9] was 55%. The “Kill rate/% after 6 days, a.i.” value ([3]; active substance 4 ppm) was 15%, the “Kill rate/% after 6 days, +AS (1000 ppm)” value [3, 7] was 98% and the “Kill rate/% after 6 days, a.i.” value ([3]; active substance 20 ppm) was 30%. For the same molecule, the “Kill rate/% after 6 days, +AS (1000 ppm)” value [1, 7] was 45%, the “Kill rate/% after 6 days, +RME (1000 ppm)” value [1, 10] was 90% and the “Kill rate/% after 6 days, +RME + AS (each 1000 ppm)” value [1, 11] was 98%. For the same molecule, the “Kill rate/% after 6 days, a.i.” value ([1]; active substance 20 ppm) was 0%, the “Kill rate/% after 6 days, +AS (1000 ppm)” value [4, 12] was 30% and the “Kill rate/% after 6 days, +RME (1000 ppm)” value [4, 13] was 45%. For the same molecule, the “Kill rate/% after 6 days, +RME + AS (each 1000 ppm)” value ([4]; active substance 0.8 ppm + rape oil methyl ester and ammonium sulfate) was 80%, the “Kill rate/% after 6 days, a.i.” value ([4]; active substance 0.8 ppm) was 50% and the “Kill rate/% after 6 days, +AS (1000 ppm)” value [4, 9] was 50%. For the same molecule, the “Kill rate/% after 6 days, +RME (1000 ppm)” value [4, 14] was 75%, the “Kill rate/% after 6 days, +RME + AS (each 1000 ppm)” value [4, 15] was 95% and the “Kill rate/% after 6 days, a.i.” value ([4]; active substance 4 ppm) was 70%.
In the case of COc1cccc(S(=O)(=O)NC2CC2)c1C#N [Example 83], the “Kill rate/% after 7 days, +AS (1000 ppm)” value [1] is reported as 0%, the “Kill rate/% after 7 days, +RME (1000 ppm)” value [1] is reported as 10% and the “Kill rate/% after 7 days, +RME + AS (each 1000 ppm)” value [1] is reported as 75%. For the same molecule, the “Kill rate/% after 7 days, a.i.” value [1] was 0%, the “Kill rate/% after 7 days, +AS (1000 ppm)” value ([5]; Table D2, active substance 2.4 g/ha + ammonium sulfate 1000 ppm, emulsifier 1 part) was 55% and the “Kill rate/% after 7 days, +RME (1000 ppm)” value ([5]; Table D2, active substance 2.4 g/ha + rape oil methyl ester 1000 ppm, emulsifier 1 part) was 30%. For the same molecule, the “Kill rate/% after 7 days, +RME + AS (each 1000 ppm)” value ([5]; Table D2, active substance 2.4 g/ha + rape oil methyl ester and ammonium sulfate, each 1000 ppm, emulsifier 1 part) was 85% and the “Kill rate/% after 7 days, a.i.” value ([5]; Table D2, active substance 2.4 g/ha, no additive, emulsifier 1 part) was 10%.
With C=CCN(C)S(=O)(=O)c1cccc(OC)c1C#N [Example 225] the “Kill rate/% after 6 days, +AS (1000 ppm)” value [3, 7] was 75%, the “Kill rate/% after 6 days, a.i.” value ([3]; active substance 20 ppm) was 35% and the “Kill rate/% after 6 days, +AS (1000 ppm)” value [1, 9] was 0%. For the same molecule, the “Kill rate/% after 6 days, +RME (1000 ppm)” value [1, 14] was 5%, the “Kill rate/% after 6 days, +RME + AS (each 1000 ppm)” value [1, 15] was 35% and the “Kill rate/% after 6 days, a.i.” value ([1]; active substance 4 ppm) was 0%. For the same molecule, the “Kill rate/% after 6 days, +AS (1000 ppm)” value [6, 7] was 80% and the “Kill rate/% after 6 days, a.i.” value [6, 8] was 20%.
With N#Cc1ccccc1S(N)(=O)=O [Example 226] the “Kill rate/% after 6 days, +AS (1000 ppm)” value [1, 7] was 10%, the “Kill rate/% after 6 days, +RME (1000 ppm)” value [1, 10] was 25% and the “Kill rate/% after 6 days, +RME + AS (each 1000 ppm)” value [1, 11] was 50%. For the same molecule, the “Kill rate/% after 6 days, a.i.” value ([1]; active substance 20 ppm) was 10%, the “Kill rate/% after 6 days, +AS (1000 ppm)” value [5, 12] was 0% and the “Kill rate/% after 6 days, +RME (1000 ppm)” value [5, 13] was 20%. For the same molecule, the “Kill rate/% after 6 days, +RME + AS (each 1000 ppm)” value ([5]; active substance 0.8 ppm + rape oil methyl ester and ammonium sulfate, each 1000 ppm) was 35%, the “Kill rate/% after 6 days, a.i.” value ([5]; active substance 0.8 ppm, no additive) was 0% and the “Kill rate/% after 6 days, +AS (1000 ppm)” value [5, 9] was 20%. For the same molecule, the “Kill rate/% after 6 days, +RME (1000 ppm)” value [5, 14] was 35%, the “Kill rate/% after 6 days, +RME + AS (each 1000 ppm)” value ([5]; active substance 4 ppm + rape oil methyl ester and ammonium sulfate, each 1000 ppm) was 55% and the “Kill rate/% after 6 days, a.i.” value ([5]; active substance 4 ppm, no additive) was 20%. The “Kill rate/% after 6 days, +AS (1000 ppm)” value [4, 7] was 70%, the “Kill rate/% after 6 days, +RME (1000 ppm)” value [4, 10] was 60% and the “Kill rate/% after 6 days, +RME + AS (each 1000 ppm)” value [4, 11] was 90%. The “Kill rate/% after 6 days, a.i.” value ([4]; active substance 20 ppm) was 50%.
